Measured values reported in patent US20250338846A1, “COMPOSITIONS HAVING PESTICIDAL UTILITY AND PROCESSES RELATED THERETO” (CORTEVA AGRISCIENCE, LLC, priority 2022, published 2025).

Key:
Assay type in all cases: in vivo
[1] = tested on: Sweet Potato Whitefly (Bemisia tabaci, BEMITA); test: Bioassay 2: Sweet Potato Whitefly, spray on cotton seedlings at crawler emergence, nymphs counted 7-9 days after treatment; conditions: AI alone 0.1 (10-5) % w/v
Summary of the method: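 Cotton seedlings pruned to one true leaf were colonized by adult B. tabaci for 24 h egg-laying, then sprayed once >25% crawler emergence was underway; solutions 0.001% to 0.00000001% (w/v) in acetone/water with 0.025% Tween 20. Held ~25° C; live 2-3 instar nymphs counted 7-9 days later, Abbott-corrected % control.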

[2] = tested on: Western Flower Thrips (Frankliniella occidentalis, FRANOC); test: Bioassay 3: Western Flower Thrips, cotton leaf disc dip, live WFT counted 3 days after treatment; conditions: Frankliniella occidentalis, foliar, 72 h; AI alone 0.0003125 % w/v
Procedure: Stock solutions of Formula One and various active ingredients were prepared initially at a concentration of 8 mg/ml for Formula One and 1 mg/mL for the active ingredients, respectively, using acetone as a diluent. Stock solutions were prepared with Formula One as well as for each of the active ingredients individually. Test solutions were prepared from the stock solutions. Test solutions were prepared containing Formula One, the individual active ingredients, and mixtures of Formula One with each of the active ingredients. The test solution for Formula One was prepared by adding 500 μL of the stock solution to a 25 mL glass vial, then adding 500 μL of acetone, followed by the addition of 9 mL water with 0.025% Tween®) 20 to create a 0.04% (w/v) solution. The test solutions of the individual active ingredients were prepared by adding 500 μL of stock solution to a 25 mL glass vial, then adding 500 μL of acetone, followed by the addition of 9 mL water with 0.025% Tween®) 20 to create a 0.005% (w/v) solution. The test solutions containing mixtures of Formula One and the individual active ingredients were prepared by adding 500 μL of the active ingredient stock solution to a 25 mL glass vial, followed by 500 μL of the Formula One stock solution, then by the addition of 9 mL water with 0.025% Tween®) 20 to create a test solution containing 0.04% (w/v) Formula One and 0.005% (w/v) of the active ingredient. Each test solution was serially diluted to create desired doses of test solutions (0.005% (w/v), 0.00125% (w/v), 0.0003125% (w/v), 0.000078% (w/v), and 0.0000195% (w/v)). In test solutions containing mixtures of Formula One and the active ingredients, the active ingredients were diluted as described above, but the Concentration of Formula One was held constant (0.04% (w/v)).
The test solutions were tested against WFT using the following procedure: Leaf discs (2.7 cm in diameter) were cut from the true leaves of cotton plants. Leaf discs were dipped into the test solutions and shaken to ensure complete coverage of the leaf disc and then placed in Millipore®) PetriSlides containing a filter paper disc. Treated leaf discs were air dried for approximately 1 hour. Each leaf disc was infested with 5 WFT (9-10-day old nymphs) by placement on each leaf disc, and the PetriSlides were capped to prevent escape. Each treatment was replicated three times and the test treatments were held at approximately 26° C. and ambient relative humidity (RH) prior to grading. Reference discs (solvent check) were treated with the diluent only. Evaluation was conducted by counting the number of live WFT under magnification 3 days after treatment. Percent control was measured using Abbott's correction formula (W. S. Abbott, J. Econ. Entomol. 18 (1925), pp. 265-267) as follows:
where X=No. of live nymphs on solvent check leaf discs and Y=No. of live nymphs on treated leaf discs. In Table B3 the “Expected % Control” was calculated using the method described in Colby S. R., Weeds, 1967, 15, 20-22. Bioassay 4: Western Tarnished Plant Bug (Lygus hesperus, LYGUHE) (“WTPB”).

[3] = tested on: Diamondback Moth (Plutella xylostella, PLUTMA); test: Bioassay 6: Diamondback Moth, artificial lepidopteran diet, live larvae after 5 days; conditions: DBM; AI alone 0.04 % w/v
Procedure: where X=No. of live nymphs on solvent check and Y=No. of live nymphs on treated bean segments. In Table B5 the “Expected % Control” was calculated using the method described in Colby S. R., Weeds, 1967, 15, 20-22. Bioassay 6: Beet Armyworm (Spodoptera exigua, LAPHEG) (BAW), and Diamondback Moth (Plutella xylostella, PLUTMA) (DBM).
(§1) Stock solutions were prepared with Formula One as well as for each of the active ingredients individually. Test solutions were prepared from the stock solutions. Test solutions were prepared containing Formula One, the individual active ingredients, and mixtures of Formula One with each of the active ingredients. The test solution for Formula One was prepared by adding 500 μL of the stock solution to a 25 mL glass vial, then adding 500 μL of a 9:1 mixture of acetone: water. The individual active ingredients were prepared by adding 500 μL of stock solution to a 25 mL glass vial, then adding 500 μL of a 9:1 mixture of acetone: water. The test solutions containing mixtures of Formula One and the individual active ingredients were prepared by adding 500 μL of the active ingredient stock solution to a 25 mL glass vial, followed by 500 μL of the Formula One stock solution, creating a test solution containing 4000 ppm Formula One and 0.4% (w/v) of the active ingredient. Each test solution was serially diluted to create desired doses of test solutions (0.4% (w/v), 0.04% (w/v), 0.004% (w/v), 0.0004% (w/v), 0.00004% (w/v), and 0.000004% (w/v)). In test solutions containing mixtures of Formula One and the active ingredients, the active ingredients were diluted as described above, but the Concentration of Formula One was held constant (0.4% (w/v)). The highest dose test solution (0.4% (w/v)) was discarded, leaving 5 test solution concentrations used in the test.
The test solutions were tested against BAW and DBM using the following procedure: An artificial lepidopteran diet (Multispecies Lepidopteran Diet, Southland Products) was distributed in 128-cell bioassay trays (Frontier Agricultural Sciences™). 50 μL of test solution was pipetted into a cell in the bioassay tray. (The test solution doses of 0.04% (w/v), 0.004% (w/v), 0.0004% (w/v), 0.00004% (w/v), and 0.000004% (w/v) translated to concentrations of 5, 0.5, 0.05, 0.005, and 0.0005 ug/cm^2 on the diet, respectively.) A reference treatment (solvent check) was treated with the diluent only. […] After 5 days, the number of live larvae were recorded from each cell and percent control was measured using Abbott's correction formula (W. S. Abbott, J. Econ. Entomol. 18 (1925), pp. 265-267) as follows:
where X=No. of live larvae on solvent check and Y=No. of live larvae on treated diet. In Table B6 the “Expected % Control” was calculated using the method described in Colby S. R., Weeds, 1967, 15, 20-22. […]

[4] = tested on: Cotton Aphid (Aphis gossypii, APHIGO); test: Bioassay 7: Cotton Aphid, foliar spray on infested cotton seedlings, live aphids counted three days after treatment
Procedure: where X=No. of live larvae on solvent check and Y=No. of live larvae on treated diet. In Table B6 the “Expected % Control” was calculated using the method described in Colby S. R., Weeds, 1967, 15, 20-22. Bioassay 7: Cotton Aphid (Aphis gossypii, APHIGO) (“CA”).
Stock solutions of Formula One and one or more of the active ingredients were prepared at concentrations of 1 mg/mL using a 1:1 mixture of acetone: methanol as a diluent. The stock solutions were prepared with Formula One as well as for each of the active ingredients individually. Test solutions were prepared from the stock solutions. Test solutions were prepared containing Formula One, the individual active ingredients, and mixtures of Formula One with each of the active ingredients. The test solutions for Formula One and the individual active ingredients were prepared by adding 1.5 mL of stock solution to a 30 mL glass vial, then adding 1.5 mL of 1:1 acetone: methanol solvent, followed by the addition of 27 mL water with 0.025% Tween® 20 to create a […]. Each test solution was serially diluted to create desired doses of test solutions ranging from 0.000001 to 0.0025% (w/v). The test solutions were tested against CA using the following procedure: cotton seedlings were grown in 3-inch pots with one true leaf (2-5 cm in diameter) were used as test substrate. The seedlings were infested with 20-50 CA (wingless adult and nymph stages) one day prior to chemical application. Four pots with individual seedlings were used for each treatment. A hand-held aspirator-type sprayer was used for spraying a solution to both sides of […] leaves until runoff. Reference plants (solvent check) were sprayed with the diluent only (0.025% Tween® 20 and 10% acetone:methanol (1:1) in water). Treated plants were held in a holding room for three days at approximately 25° C. and ambient relative humidity (RH about 20% to about 45%) prior to grading. Evaluation was conducted by counting the number of live aphids per plant under a microscope three days after treatment. Percent control was measured using Abbott's correction formula (W. S. Abbott, J. Econ. Entomol. 18 (1925), pp. 265-267) as follows:
(§2) where X=No. of live aphids on solvent check plants and Y=No. of live aphids on treated plants. In Table B1 the “Expected % Control” was calculated using the method described in Colby S. R., Weeds, 1967, 15, 20-22. Bioassay 8: Sweet Potato Whitefly (Bemisia tabaci, BEMITA) (“SPW”).

[5] = tested on: Sweet Potato Whitefly (Bemisia tabaci, BEMITA); test: Bioassay 8: Sweet Potato Whitefly, spray on cotton seedlings at crawler emergence, nymphs counted 7-9 days after treatment
Procedure: as §2
Stock solutions were prepared with Formula One as well as for each of the active ingredients individually. Test solutions were prepared from the stock solutions. Test solutions were prepared containing Formula One, the individual active ingredients, and mixtures of Formula One with each of the active ingredients. The test solutions for Formula One and the individual active ingredients were prepared by adding 500 μL of stock solution to a 25 mL glass vial, then adding 500 μL of acetone, followed by the addition of 9 mL water with 0.025% Tween®) 20 to create a 0.001% (w/v) solution. The test solutions containing mixtures of Formula One and the individual active ingredients were prepared by adding 500 μL of the active ingredient stock solution to a 25 mL glass vial, followed by 500 μL of the Formula One stock solution, then by the addition of 9 mL water with 0.025% Tween®) 20 to create a test solution containing 0.001% (w/v) Formula One and 0.001% (w/v) of the active ingredient. Each test solution was serially diluted to create desired doses of test solutions (0.001% (w/v), 0.0001% (w/v), 0.00001% (w/v), 0.000001% (w/v), 0.0000001% (w/v), […] and 0.00000001% (w/v)).
The test solutions were tested against SPW using the following procedure: Cotton seedlings grown in 3-inch pots, pruned so that only one true leaf remained, were used as test substrate. Adult B. tabaci were allowed to colonize the cotton plants and lay eggs for 24 hours after which all adults were removed from the plants using compressed air. Plants were monitored for egg development and, when crawler emergence was underway (>25% emergence based on visual examination using a microscope), the plants were sprayed using the test solutions and methods described above for green peach aphids (GPA). Treated plants were held in a holding room at approximately 25° C. and ambient relative humidity (RH) prior to grading. Evaluation was conducted by counting the number of developed 2-3 instar nymphs per plant under a microscope 7-9 days after treatment. Percent control was measured using Abbott's correction formula (W. S. Abbott, J. Econ. Entomol. 18 (1925), pp. 265-267) as follows:
(§3) where X=No. of live nymphs on solvent check plants and Y=No. of live nymphs on treated plants. In Table B2 the “Expected % Control” was calculated using the method described in Colby S. R., Weeds, 1967, 15, 20-22. Bioassay 9: Diamondback Moth (Plutella xylostella, PLUTMA) (DBM).

[6] = tested on: Diamondback Moth (Plutella xylostella, PLUTMA); test: Bioassay 9: Diamondback Moth, leaves of track-sprayed cabbage plants, mortality and feeding damage scored; conditions: AI alone 20 (10^-5) Wt %
Procedure: as §3, §1
Cabbage seedlings, grown in 3-inch pots with 2-3 small (3-5 centimeter (cm)) true leaves, were used as test substrate. Cabbage plants were sprayed with desired concentrations of Formula One and active ingredients or their mixtures using a track Sprayer. Reference plants (solvent check) were sprayed with diluent only (0.025% Tween® 20 and 10% acetone:methanol (1:1) in water). The sprayed cabbage plants were allowed to dry for 1 hour, after which leaves from each treatment were placed in a cell of a plastic tray. One leaf per cell and 8 replicates for each cell. The tested doses ranged between 0.000001% (w/v) to 0.0002% (w/v). One 2nd instar DBM larvae were placed in each cell of the tray and allowed to feed on the cabbage foliage for […] after which the mortality and feeding damage were scored. Test trays were held at approximately 26° C. and ambient relative humidity (RH) prior to grading. The number of live larvae were recorded from each cell and percent control was measured using Abbott's correction formula (W. S. Abbott, J. Econ. Entomol. 18 (1925), pp. 265-267) as follows:
where X=No. of live larvae on solvent check and Y=No. of live larvae on treated diet. In Table B6 the “Expected % Control” was calculated using the method described in Colby S. R., Weeds, 1967, 15, 20-22.

[7] = tested on: Diamondback Moth (Plutella xylostella, PLUTMA); test: as above; conditions: Feeding damage control; AI alone 40 (10^-5) Wt %

Compound	Average % Control AI [1] [%]	pest or weed control at 0.0003125 % strength [2] [%]	Average % Control AI [3] [%]	Average % Control A1 ([4]; AI alone 0.2 (10^-5) Wt %) [%]	Average % Control A1 ([4]; AI alone 7 (10^-5) Wt %) [%]	Average % Control A1 ([4]; AI alone 12 (10^-5) Wt %) [%]	Average % Control A1 ([5]; AI alone 0.1 (10^-5) Wt %) [%]	Average % Control A1 ([5]; AI alone 0.8 (10^-5) Wt %) [%]	Average % Control AI ([6]; Acute mortality) [%]	Average % Control AI ([6]; Feeding damage control) [%]	Average % Control AI [7] [%]
CNC(=O)O/N=C(\SC)C(=O)N(C)C [Oxamyl]	0	0	0								
Spidoximat				13.25	32.54	35.09	37.90	62.26	0.00	17.83	37.98
